Reference: patent US7638508B2, “Glucocorticosteroid compound having anti-inflammatory activity” (Glaxo Group Limited, priority 2003, dated 2009)
pEC50: −log10 of the molar value.

Assays:
Format in all cases: cell-based
glucocorticoid receptor [1] = molecular target: T1, glucocorticoid receptor (Homo sapiens, UniProt P04150); experiment: NF-κB/ELAM promoter sPAP reporter assay in A549 cells, TNF stimulated (transrepressive activity of a glucocorticoid agonist); design: A549 cells stably transfected with a reporter gene containing the NF-κB responsive elements; endogenous in cells; host or cells: A549 cells; conditions: compound 1 hour at 37° C., then TNF 10 ng/ml for 16 hours, read-out: EC50 (transrepression, NF-κB sPAP reporter)
T1 sequence (P04150 1-777): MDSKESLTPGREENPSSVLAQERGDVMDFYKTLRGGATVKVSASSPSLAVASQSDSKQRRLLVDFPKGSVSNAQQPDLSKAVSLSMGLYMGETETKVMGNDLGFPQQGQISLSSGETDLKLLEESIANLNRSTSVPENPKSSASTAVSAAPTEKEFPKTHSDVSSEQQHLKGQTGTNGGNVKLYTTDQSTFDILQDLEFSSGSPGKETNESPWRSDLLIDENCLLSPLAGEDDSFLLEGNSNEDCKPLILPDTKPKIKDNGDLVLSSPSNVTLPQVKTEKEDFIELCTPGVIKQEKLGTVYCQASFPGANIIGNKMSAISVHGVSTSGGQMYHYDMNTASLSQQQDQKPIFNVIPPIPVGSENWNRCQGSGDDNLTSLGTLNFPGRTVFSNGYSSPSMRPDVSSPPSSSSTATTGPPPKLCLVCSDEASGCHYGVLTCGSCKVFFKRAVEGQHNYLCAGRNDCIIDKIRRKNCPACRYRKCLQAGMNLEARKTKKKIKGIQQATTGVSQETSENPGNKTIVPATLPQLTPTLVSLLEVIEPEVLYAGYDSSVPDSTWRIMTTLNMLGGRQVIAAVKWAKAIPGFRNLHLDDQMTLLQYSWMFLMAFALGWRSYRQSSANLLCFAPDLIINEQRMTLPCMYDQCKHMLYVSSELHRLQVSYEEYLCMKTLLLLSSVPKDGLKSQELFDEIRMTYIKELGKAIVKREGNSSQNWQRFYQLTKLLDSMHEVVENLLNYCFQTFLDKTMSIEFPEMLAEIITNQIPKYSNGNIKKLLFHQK
Method: (§1) Pharmacological activity may be assessed in functional in vitro assays of glucocorticoid agonist activity.
The functional assay based on that described by K. P. Ray et al., Biochem J. (1997), 328, 707-715 provides a measure of transrepressive activity of a glucocorticoid agonist. A549 cells stably transfected with a reporter gene containing the NF-κB responsive elements from the ELAM gene promoter coupled to sPAP (secreted alkaline phosphatase) are treated with test compounds at appropriate doses for 1 hour at 37° C. The cells are then stimulated with tumour necrosis factor (TNF, 10 ng/ml) for 16 hours, at which time the amount of alkaline phosphatase produced is measured by a standard colourimetric assay. Dose response curves are constructed from which EC50 values may be estimated.

Progesterone Receptor = molecular target: T2, Progesterone Receptor (Homo sapiens, UniProt P06401); experiment: Assay for Progesterone Receptor Activity: alkaline phosphatase upregulation in T47D cells; conditions: 24 hours at 37° C.
T2 construct: The human breast cancer cell line T47D has been reported to upregulate an endogenous alkaline phosphatase in response to progestins; endogenous in cells; host or cells: T47D cells
T2 sequence (P06401 1-933): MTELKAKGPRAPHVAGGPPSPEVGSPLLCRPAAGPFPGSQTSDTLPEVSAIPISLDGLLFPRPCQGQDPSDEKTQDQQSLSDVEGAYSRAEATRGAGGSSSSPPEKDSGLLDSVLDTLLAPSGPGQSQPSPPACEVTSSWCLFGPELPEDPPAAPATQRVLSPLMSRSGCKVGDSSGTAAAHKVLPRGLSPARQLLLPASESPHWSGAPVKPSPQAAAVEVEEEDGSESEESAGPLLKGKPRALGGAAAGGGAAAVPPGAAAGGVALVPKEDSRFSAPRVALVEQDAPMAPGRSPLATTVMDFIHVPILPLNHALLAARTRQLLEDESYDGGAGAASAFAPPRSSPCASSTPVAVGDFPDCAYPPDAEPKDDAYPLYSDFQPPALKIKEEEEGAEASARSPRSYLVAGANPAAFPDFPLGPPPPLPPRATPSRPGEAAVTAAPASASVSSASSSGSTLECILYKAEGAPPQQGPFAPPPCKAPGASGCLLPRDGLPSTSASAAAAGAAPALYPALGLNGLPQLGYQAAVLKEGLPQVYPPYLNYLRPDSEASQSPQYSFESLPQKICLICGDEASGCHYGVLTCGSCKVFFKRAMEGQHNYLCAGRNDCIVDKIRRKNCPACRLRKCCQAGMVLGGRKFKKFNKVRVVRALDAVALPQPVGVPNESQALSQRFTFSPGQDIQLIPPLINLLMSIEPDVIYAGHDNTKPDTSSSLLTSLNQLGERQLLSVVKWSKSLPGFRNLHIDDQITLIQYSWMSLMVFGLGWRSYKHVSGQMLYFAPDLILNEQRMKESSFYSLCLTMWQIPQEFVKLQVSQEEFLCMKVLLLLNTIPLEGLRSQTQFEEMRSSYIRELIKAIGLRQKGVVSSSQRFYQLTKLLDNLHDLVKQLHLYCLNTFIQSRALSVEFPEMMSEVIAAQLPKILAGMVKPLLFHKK
Method: Assay for Progesterone Receptor Activity
The human breast cancer cell line T47D has been reported to upregulate an endogenous alkaline phosphatase in response to progestins (Di Lorenzo et al., Cancer Research (1991) 51, 4470-4475. T47D cells were seeded into 96 well plates at a density of 1×10^5 cells per well and grown overnight at 37° C. Steroids were dissolved in DMSO, added to the cells (final DMSO concentration 0.7%), and incubated for 24 hours at 37° C. The cells were then washed with PBS and lysed with RIPA buffer (1% IGEPAL, 0.5% Na deoxycholate, 0.1% SDS in phosphate buffered saline). Alkaline phosphatase activity was measured spectrophotometrically (405 nm) using p-nitrophenylphosphate (1.5 mg/ml) as a substrate dissolved in 1 M diethanolamine, 0.28M NaCl, 0.5 mM MgCl2. Dose response curves were constructed from which EC50 values were estimated.

glucocorticoid receptor [2] = molecular target: T1, glucocorticoid receptor; experiment: MMTV-LTR renilla luciferase reporter assay in A549 cells (direct transactivation of gene expression); conditions: 6 hour at 37° C., read-out: maximal response relative to Dexamethasone (100%)
Method: as §1
The functional assay based on that described by R. J. H. Austin et al., Eur Resp J. (2002), 20, 1386-1392 measures the ability of compounds to directly transactivate gene expression. A549 cells stably transfected with a reporter gene containing the glucocorticoid responsive region of the mouse mammary tumour virus long terminal repeat (MMTV-LTR) coupled to renilla luciferase were treated with test compounds at appropriate doses for 6 hour at 37° C. The amount of luciferase activity present within the cells is then determined by measuring the light emitted following incubation with a suitable substrate.

SMILES | pEC50 (glucocorticoid receptor [1]) | pEC50 (Progesterone Receptor) | Emax (glucocorticoid receptor [2]) [%]
C[C@@H]1C[C@H]2[C@@H]3C[C@H](F)C4=CC(=O)C=C[C@]4(C)[C@@]3(F)[C@@H](O)C[C@]2(C)[C@@]1(OC(=O)c1ccc(C#N)cc1)C(=O)OCC#N [Example 8, 17α-(4-Cyanobenzoyl)oxy-6α,9α-difluoro-11β-hydroxy-16α-methyl-3-oxo-androsta-1,4-diene-17β-carboxylic Acid Cyanomethyl Ester] | ≥ 10.00 | < 7.00 | < 35
CSc1ccc(C(=O)O[C@]2(C(=O)OCC#N)[C@H](C)C[C@H]3[C@@H]4C[C@H](F)C5=CC(=O)C=C[C@]5(C)[C@@]4(F)[C@@H](O)C[C@@]32C)s1 [Example 15, 6α,9α-Difluoro-11β-hydroxy-16α-methyl-17α-(5-methylthio-thiophene-2-carbonyl)oxy-3-oxo-androsta-1,4-diene-17β-carboxylic Acid Cyanomethyl Ester] | ≥ 10.00 | – | < 35
C[C@@H]1C[C@H]2[C@@H]3C[C@H](F)C4=CC(=O)CC[C@]4(C)[C@@]3(F)[C@@H](O)C[C@]2(C)[C@@]1(OC(=O)C1C(C)(C)C1(C)C)C(=O)OCC#N [Example 18, 6α,9α-Difluoro-11β-hydroxy-16α-methyl-3-oxo-17α-(2,2,3,3-tetramethycyclopropylcarbonyl)oxy-androst-4-ene-17 b-carboxylic Acid Cyanomethyl Ester] | – | < 7.00 | < 35
C[C@@H]1C[C@H]2[C@@H]3C[C@H](F)C4=CC(=O)C=C[C@]4(C)[C@@]3(F)[C@@H](O)C[C@]2(C)[C@@]1(OC(=O)C1C(C)(C)C1(Cl)Cl)C(=O)OCC#N (stereo partly drawn) [Example 20, 17α-(2,2-Dichloro-3,3-dimethylclopropylcarbonyl)oxy-6α,9α-difluoro-11β-hydroxy-16α-methyl-3-oxo-androsta-1,4-diene-17β-carboxylic Acid Cyanomethyl Ester] | ≥ 10.00 | < 7.00 | < 35
C[C@@H]1C[C@H]2[C@@H]3C[C@H](F)C4=CC(=O)C=C[C@]4(C)[C@@]3(F)[C@@H](O)C[C@]2(C)[C@@]1(OC(=O)c1ccc(S(C)(=O)=O)s1)C(=O)SCC#N [Example 23, 6α,9α-Difluoro-11β-hydroxy-16α-methyl-17α-(5-methylsulphonyl-thiophene-2-carbonyl)oxy-3-oxo-androsta-1,4-diene-17β-carbothioic Acid S-cyanomethyl Ester] | – | < 7.00 | < 35
C[C@@H]1C[C@H]2[C@@H]3C[C@H](F)C4=CC(=O)C=C[C@]4(C)[C@@]3(F)[C@@H](O)C[C@]2(C)[C@@]1(OC(=O)c1ccc(C(F)(F)F)o1)C(=O)SCC#N [Example 24, 6α,9α-Difluoro-11β-hydroxy-16α-methyl-3-oxo-17α-(5-trifluoromethyl-furan-2-carbonyl)oxy-androsta-1,4-diene-17β-carbothioic Acid S-cyanomethyl Ester] | – | < 7.00 | < 35
C[C@@H]1C[C@H]2[C@@H]3C[C@H](F)C4=CC(=O)C=C[C@]4(C)[C@@]3(F)[C@@H](O)C[C@]2(C)[C@@]1(OC(=O)c1cccc(SC(F)F)c1)C(=O)SCC#N [Example 25, 6α,9α-Difluoro-17α-(3-(difluoromethylthio)benzoyl)oxy-11β-hydroxy-16α-methyl-3-oxo-androsta-1,4-diene-17β-carbothioic Acid S-cyanomethyl Ester] | – | < 7.00 | < 35
